pEC50, pIC50: −log10 of the molar value. Values after ≈ are worked out from the molar mass of the structure shown.
Experiments:
[1] = 1-Octanol/aqueous buffer partition coefficient, logD of the compound at pH 7.4 by chromatographic method; format: physicochemical
[2] = Kinetic solubility of the compound in JP2 fluid at pH 6.8 by precipitation method; format: physicochemical; details: read-out: Kinetic_solubility
[3] = Intrinsic clearance in mouse liver microsomes at 1 uM in presence of NADPH generating system assessed per mg protein by LC-MS/MS analysis; format: ADME, Microsome; details: read-out: CLH
hERG [4] = target: T1, hERG (Homo sapiens, UniProt Q12809); experiment: Inhibition of hERG expressed in CHO-K1 cells at 10 uM incubated for 5 mins by whole cell-automated voltage clamp analysis; format: toxicity, cell-based; details: CHO-K1 cells expressing hERG
T1 sequence (Q12809 whole entry): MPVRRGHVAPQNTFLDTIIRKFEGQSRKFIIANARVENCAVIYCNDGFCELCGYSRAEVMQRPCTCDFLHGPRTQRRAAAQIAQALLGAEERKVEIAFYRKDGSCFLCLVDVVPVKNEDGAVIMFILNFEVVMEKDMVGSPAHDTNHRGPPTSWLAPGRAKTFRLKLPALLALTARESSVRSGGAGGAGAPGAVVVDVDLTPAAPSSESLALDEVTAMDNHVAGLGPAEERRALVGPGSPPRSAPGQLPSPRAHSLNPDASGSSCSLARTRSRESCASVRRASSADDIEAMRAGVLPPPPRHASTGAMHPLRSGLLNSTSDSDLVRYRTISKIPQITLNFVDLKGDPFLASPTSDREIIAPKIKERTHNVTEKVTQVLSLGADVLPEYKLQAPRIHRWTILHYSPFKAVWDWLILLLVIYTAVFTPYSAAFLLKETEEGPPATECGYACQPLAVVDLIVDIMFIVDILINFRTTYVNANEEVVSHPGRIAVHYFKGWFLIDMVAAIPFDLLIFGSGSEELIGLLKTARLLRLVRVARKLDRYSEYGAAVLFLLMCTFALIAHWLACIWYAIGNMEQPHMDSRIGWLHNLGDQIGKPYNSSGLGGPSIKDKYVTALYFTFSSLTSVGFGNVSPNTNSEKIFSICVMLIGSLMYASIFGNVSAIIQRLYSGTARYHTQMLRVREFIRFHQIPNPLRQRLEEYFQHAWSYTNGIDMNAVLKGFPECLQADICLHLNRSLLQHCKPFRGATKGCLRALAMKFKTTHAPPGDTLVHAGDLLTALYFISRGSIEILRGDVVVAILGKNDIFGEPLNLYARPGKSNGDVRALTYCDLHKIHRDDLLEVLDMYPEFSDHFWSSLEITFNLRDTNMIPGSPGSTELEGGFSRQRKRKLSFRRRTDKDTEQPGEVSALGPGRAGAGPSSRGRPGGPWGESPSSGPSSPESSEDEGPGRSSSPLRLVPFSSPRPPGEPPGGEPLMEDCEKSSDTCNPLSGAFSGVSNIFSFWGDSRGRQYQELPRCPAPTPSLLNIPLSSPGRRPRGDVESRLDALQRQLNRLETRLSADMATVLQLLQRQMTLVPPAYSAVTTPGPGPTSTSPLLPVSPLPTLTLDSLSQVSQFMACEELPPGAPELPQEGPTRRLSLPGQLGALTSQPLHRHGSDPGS

[5] = Efflux ratio of apparent permeability from basolateral to apical side over apical to basolateral side in dog MDCK-MDR1 cells at 1 uM measured after 1 hr by LC-MS/MS analysis; format: ADME, cell-based, Canis lupus familiaris
[6] = target: T2, Ceramide glucosyltransferase (Mus musculus, UniProt O88693); experiment: Inhibition of mouse GCS using C8-ceramide and UDP-glucose as substrate incubated for 1 hr by RapidFire mass spectrometry
T2 sequence (O88693 whole entry): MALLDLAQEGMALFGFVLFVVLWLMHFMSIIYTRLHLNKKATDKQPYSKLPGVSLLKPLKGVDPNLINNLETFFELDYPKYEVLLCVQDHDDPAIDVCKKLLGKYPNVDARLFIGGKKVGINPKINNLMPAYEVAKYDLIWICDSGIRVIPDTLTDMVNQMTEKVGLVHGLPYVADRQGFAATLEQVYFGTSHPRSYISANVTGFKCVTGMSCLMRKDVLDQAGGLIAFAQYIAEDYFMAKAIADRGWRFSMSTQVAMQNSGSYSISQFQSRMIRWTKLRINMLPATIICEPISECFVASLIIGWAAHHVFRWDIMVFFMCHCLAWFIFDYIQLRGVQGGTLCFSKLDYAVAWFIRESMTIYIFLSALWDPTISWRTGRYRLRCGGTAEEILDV

CYP1A2 = target: T3, CYP1A2 (Homo sapiens, UniProt P05177); experiment: Inhibition of CYP1A2 in human liver microsomes using tacrine as substrate at 10 uM in presence of NADPH generating system incubated for 10 mins; format: ADME; details: probe tacrine
T3 sequence (P05177 whole entry): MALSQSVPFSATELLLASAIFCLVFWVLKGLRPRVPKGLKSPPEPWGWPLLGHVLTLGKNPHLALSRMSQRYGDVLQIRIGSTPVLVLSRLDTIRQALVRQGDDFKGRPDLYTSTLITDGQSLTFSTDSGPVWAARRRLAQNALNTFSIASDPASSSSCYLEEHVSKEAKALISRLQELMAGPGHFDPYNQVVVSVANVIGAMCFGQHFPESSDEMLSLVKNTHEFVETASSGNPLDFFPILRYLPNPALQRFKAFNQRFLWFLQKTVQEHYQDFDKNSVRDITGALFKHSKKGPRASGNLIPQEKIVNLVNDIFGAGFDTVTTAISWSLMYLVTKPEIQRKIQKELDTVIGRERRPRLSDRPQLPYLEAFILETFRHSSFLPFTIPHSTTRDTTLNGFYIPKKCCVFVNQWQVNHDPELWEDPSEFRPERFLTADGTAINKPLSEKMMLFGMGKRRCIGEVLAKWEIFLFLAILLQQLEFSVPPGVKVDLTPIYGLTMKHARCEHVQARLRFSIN

CYP2C8 = target: T4, CYP2C8 (Homo sapiens, UniProt P10632); experiment: Inhibition of CYP2C8 in human liver microsomes using paclitaxel as substrate at 10 uM in presence of NADPH generating system incubated for 10 mins; format: ADME; details: probe paclitaxel
T4 sequence (P10632 whole entry): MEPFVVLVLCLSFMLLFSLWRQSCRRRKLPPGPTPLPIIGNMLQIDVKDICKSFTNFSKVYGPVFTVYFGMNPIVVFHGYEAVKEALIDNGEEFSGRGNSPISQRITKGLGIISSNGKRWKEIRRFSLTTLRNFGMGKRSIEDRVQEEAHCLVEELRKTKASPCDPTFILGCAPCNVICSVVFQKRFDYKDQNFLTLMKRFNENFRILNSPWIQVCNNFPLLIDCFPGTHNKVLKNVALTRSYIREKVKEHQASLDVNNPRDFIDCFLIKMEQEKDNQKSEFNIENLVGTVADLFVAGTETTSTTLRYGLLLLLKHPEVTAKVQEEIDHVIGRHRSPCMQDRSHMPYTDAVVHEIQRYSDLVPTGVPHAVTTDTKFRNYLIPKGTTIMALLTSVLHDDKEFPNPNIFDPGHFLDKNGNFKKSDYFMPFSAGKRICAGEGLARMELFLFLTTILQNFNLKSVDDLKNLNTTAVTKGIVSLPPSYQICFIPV

CYP2C9 = CYP2C9 (Homo sapiens, UniProt P11712); experiment: Inhibition of CYP2C9 in human liver microsomes using tolbutamide as substrate at 10 uM in presence of NADPH generating system incubated for 10 mins; format: ADME; details: probe tolbutamide
CYP2C9, sequence (P11712 whole entry): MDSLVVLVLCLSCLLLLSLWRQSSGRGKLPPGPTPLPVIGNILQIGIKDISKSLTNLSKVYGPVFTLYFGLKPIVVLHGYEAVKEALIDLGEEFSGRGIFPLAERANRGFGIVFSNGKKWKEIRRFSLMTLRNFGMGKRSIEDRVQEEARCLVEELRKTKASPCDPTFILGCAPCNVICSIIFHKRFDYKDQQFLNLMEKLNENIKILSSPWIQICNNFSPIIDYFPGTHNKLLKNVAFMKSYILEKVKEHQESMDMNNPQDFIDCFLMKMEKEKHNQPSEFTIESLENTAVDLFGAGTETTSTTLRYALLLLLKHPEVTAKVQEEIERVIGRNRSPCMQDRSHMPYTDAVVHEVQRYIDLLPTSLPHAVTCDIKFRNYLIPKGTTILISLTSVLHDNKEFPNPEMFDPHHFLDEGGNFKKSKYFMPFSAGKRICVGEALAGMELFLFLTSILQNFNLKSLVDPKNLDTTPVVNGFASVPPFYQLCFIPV

CYP2D6 = CYP2D6 (Homo sapiens, UniProt P10635); experiment: Inhibition of CYP2D6 in human liver microsomes using dextromethorphan as substrate at 10 uM in presence of NADPH generating system incubated for 10 mins; format: ADME; details: probe dextromethorphan
CYP2D6, sequence (P10635 whole entry): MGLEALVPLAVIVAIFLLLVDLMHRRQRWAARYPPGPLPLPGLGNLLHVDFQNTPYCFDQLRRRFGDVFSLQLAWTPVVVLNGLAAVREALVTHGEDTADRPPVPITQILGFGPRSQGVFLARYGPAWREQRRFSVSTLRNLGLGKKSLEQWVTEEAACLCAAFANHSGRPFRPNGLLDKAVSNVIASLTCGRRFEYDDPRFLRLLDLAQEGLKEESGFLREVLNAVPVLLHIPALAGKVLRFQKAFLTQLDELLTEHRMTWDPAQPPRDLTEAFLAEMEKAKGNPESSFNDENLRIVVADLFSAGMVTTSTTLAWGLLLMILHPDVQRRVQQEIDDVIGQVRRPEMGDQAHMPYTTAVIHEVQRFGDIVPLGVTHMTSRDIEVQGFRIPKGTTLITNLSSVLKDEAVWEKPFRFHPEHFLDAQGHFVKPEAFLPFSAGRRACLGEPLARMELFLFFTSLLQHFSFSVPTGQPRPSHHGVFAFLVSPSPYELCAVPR

CYP3A4 = CYP3A4 (Homo sapiens, UniProt P08684); experiment: Inhibition of CYP3A4 in human liver microsomes using midazolam as substrate at 10 uM in presence of NADPH generating system incubated for 10 mins; format: ADME; details: probe midazolam
[7] = Plasma clearance in non-fasted ICR mouse at 0.5 mg/kg, iv by LC-MS/MS analysis; format: ADME, organism-based
[8] = Volume of distribution at steady state in non-fasted ICR mouse at 0.5 mg/kg, iv by LC-MS/MS analysis; format: ADME, organism-based; details: in vivo, read-out: Vdss
[9] = MRT in non-fasted ICR mouse at 0.5 mg/kg, iv by LC-MS/MS analysis; format: ADME, organism-based; details: in vivo
[10] = Cmax in non-fasted ICR mouse at 5 mg/kg, po by LC-MS/MS analysis; format: ADME, organism-based; set-up: route oral, dose 5 mg/kg; details: in vivo
[11] = AUC in non-fasted ICR mouse at 5 mg/kg, po by LC-MS/MS analysis; format: ADME, organism-based; set-up: dose 5 mg/kg; details: in vivo
[12] = MRT in non-fasted ICR mouse at 5 mg/kg, po by LC-MS/MS analysis; format: ADME, organism-based; details: in vivo
[13] = Ratio of unbound drug concentration in brain to plasma of non-fasted ICR mouse at 30 mg/kg, po measured after 1 hr by LC-MS/MS analysis; format: ADME, organism-based; details: read-out: K(p,uu,brain)
[14] = Unbound drug concentration in brain of non-fasted ICR mouse at 30 mg/kg, po measured after 1 hr by LC-MS/MS analysis; format: ADME, organism-based; details: in vivo
hERG [15] = target: T1, hERG; experiment: Inhibition of hERG expressed in CHO-K1 cells at 30 uM by automated whole cell patch clamp assay; format: toxicity, cell-based; details: CHO-K1 cells expressing hERG
Cav1.2 = Cav1.2 (Homo sapiens, UniProt Q13936); experiment: Inhibition of human Cav1.2 expressed in HEK293 cells at 30 uM by automated electrophysiology QPatch HT assay; format: toxicity, cell-based; details: HEK293 cells expressing Cav1.2
Nav1.5 = Nav1.5 (Homo sapiens, UniProt Q14524); experiment: Inhibition of human Nav1.5 at 30 uM by automated whole cell patch clamp assay; format: toxicity
Nav1.5, sequence (Q14524 whole entry): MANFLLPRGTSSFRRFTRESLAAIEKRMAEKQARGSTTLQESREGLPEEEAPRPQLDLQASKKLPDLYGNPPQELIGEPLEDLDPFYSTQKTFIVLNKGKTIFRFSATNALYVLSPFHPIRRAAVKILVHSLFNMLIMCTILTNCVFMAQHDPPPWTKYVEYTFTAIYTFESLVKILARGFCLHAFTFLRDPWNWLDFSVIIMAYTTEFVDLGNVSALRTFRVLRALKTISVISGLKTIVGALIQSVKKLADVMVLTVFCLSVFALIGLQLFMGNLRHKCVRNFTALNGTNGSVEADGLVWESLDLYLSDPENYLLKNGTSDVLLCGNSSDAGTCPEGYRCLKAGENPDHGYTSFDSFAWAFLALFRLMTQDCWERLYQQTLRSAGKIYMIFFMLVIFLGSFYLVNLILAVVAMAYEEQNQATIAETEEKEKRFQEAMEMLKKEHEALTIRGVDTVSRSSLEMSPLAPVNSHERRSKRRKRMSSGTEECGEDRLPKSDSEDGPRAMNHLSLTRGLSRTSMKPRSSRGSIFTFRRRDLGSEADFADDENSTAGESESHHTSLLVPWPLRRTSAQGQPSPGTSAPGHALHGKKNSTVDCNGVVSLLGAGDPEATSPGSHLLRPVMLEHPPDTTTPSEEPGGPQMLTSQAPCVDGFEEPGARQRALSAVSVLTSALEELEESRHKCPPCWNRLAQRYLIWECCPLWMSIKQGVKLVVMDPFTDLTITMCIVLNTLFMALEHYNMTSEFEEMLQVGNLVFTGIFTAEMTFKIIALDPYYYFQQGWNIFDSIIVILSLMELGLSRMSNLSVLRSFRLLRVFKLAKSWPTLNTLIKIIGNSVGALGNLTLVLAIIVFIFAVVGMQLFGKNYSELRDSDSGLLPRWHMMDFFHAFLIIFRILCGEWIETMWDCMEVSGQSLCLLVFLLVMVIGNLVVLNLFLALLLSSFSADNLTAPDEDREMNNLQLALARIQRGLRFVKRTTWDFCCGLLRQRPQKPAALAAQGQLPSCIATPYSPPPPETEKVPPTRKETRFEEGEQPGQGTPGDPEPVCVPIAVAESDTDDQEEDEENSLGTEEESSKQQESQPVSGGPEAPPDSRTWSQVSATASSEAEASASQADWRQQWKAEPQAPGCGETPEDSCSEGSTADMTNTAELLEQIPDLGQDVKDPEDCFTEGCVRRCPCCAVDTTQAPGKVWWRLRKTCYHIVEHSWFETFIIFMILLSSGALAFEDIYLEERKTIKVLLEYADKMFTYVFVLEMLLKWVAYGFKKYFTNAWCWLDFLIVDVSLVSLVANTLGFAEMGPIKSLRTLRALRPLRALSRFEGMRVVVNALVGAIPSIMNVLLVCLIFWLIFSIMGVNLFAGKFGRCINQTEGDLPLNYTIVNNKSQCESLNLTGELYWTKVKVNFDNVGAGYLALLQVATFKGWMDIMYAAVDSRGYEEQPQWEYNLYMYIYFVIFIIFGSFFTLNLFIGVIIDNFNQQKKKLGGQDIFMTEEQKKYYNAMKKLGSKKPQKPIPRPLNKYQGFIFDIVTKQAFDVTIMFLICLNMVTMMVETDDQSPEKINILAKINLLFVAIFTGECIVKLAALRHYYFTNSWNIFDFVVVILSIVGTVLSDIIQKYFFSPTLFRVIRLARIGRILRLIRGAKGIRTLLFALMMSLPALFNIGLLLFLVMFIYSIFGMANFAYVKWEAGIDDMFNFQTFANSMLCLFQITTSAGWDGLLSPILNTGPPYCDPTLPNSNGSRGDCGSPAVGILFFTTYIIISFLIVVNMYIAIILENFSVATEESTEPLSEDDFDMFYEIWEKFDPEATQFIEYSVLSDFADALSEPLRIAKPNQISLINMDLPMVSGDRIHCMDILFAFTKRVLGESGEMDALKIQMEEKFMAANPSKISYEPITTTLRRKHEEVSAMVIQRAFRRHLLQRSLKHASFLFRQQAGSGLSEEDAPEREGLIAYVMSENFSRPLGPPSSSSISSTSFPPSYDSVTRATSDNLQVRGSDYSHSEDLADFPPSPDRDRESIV

[16] = Cardiotoxicity in human iPSC-derived cardiomyocytes assessed as induction of proarrhythmic activity at 30 uM by Fluo-4 dye based fluorescence analysis; format: toxicity; details: cardiac muscle cell
[17] = Toxicity in Sprague-Dawley rat assessed as reduction in body weight at 30 to 100 mg/kg, po administered once daily for 3 days; format: organism-based; details: in vivo, 72 h, dose 30-100 mg/kg, time 3 day
[18] = target: Sodium-dependent serotonin transporter (Homo sapiens, UniProt P31645); experiment: Inhibition of human SERT; format: toxicity
Sodium-dependent serotonin transporter, sequence (P31645 whole entry): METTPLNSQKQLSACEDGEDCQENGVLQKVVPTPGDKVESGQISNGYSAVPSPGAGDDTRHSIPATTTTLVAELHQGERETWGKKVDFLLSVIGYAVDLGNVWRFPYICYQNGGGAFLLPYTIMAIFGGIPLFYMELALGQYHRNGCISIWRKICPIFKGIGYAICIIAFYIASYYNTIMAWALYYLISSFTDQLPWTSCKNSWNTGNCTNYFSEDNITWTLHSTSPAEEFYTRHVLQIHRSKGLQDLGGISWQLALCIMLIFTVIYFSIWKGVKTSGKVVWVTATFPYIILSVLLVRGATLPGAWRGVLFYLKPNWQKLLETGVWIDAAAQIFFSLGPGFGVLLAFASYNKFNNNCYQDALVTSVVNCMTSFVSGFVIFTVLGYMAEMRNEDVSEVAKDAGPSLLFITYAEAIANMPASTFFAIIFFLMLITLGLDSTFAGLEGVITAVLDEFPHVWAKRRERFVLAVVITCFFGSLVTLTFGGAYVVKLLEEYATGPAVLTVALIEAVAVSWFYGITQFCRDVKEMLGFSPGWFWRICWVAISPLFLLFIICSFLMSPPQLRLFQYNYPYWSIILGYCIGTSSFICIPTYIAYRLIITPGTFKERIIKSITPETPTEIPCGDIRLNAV

[19] = target: Ceramide glucosyltransferase (Homo sapiens, UniProt Q16739); experiment: Inhibition of GCS in GBA mutant human fibroblasts assessed as reduction in glucosylceramide level incubated for 4 days by RapdiFire-MS/MS analysis; format: cell-based; details: fibroblast
[20] = Oral bioavailability in non-fasted ICR mouse at 5 mg/kg by LC-MS/MS analysis; format: ADME, organism-based; details: in vivo
[21] = Toxicity in C57BL/6J mouse assessed as change in body weight at 30 to 100 mg/kg, po; format: organism-based; details: in vivo, dose 30-100 mg/kg
[22] = Cardiotoxicity in human iPSC-derived cardiomyocytes assessed as minimum effective concentration required for intracellular calcium transients-mediated proarrhythmic activity by Fluo-4 dye based fluorescence analysis; format: toxicity; details: cardiac muscle cell

CC(C)(O)c1ccc(N2Cc3c(ccnc3-c3ccc(F)cc3OCC(F)(F)F)C2=O)cc1
chromatographic logD [1]: 2.48 | solubility kinetic [2]: 5.2 µg/mL (≈ 11.3 µM) | microsomal CLint at 1 µM [3]: 6 µL/min/mg | inhibition at 5 min, 10 µM (hERG [4]): 13.8% | efflux ratio at 1 h, 1 µM [5]: 9.6 | pIC50 [6]: 7.29 | inhibition at 10 min, 10 µM (CYP1A2): 5.8% | inhibition at 10 min, 10 µM (CYP2C8): 22.4% | inhibition at 10 min, 10 µM (CYP2C9): 37.9% | inhibition at 10 min, 10 µM (CYP2D6): 10.9% | inhibition at 10 min, 10 µM (CYP3A4): 15.5% | clearance [7]: 5.23 mL/min/kg | Vd [8]: 1.08 L/kg | MRT [9]: 3.44 h | Cmax [10]: 1180 ng/mL | AUC [11]: 10700 ng·h/mL | MRT [12]: 7.14 h | Kp uu at 1 h [13]: 0.11 | Drug uptake(free) [14]: 0.24 µM | inhibition at 30 µM (hERG [15]): 42% | inhibition at 30 µM (Cav1.2): 2.4% | inhibition at 30 µM (Nav1.5): 7.1% | Activity [16]: Non-Toxic | Activity [17]: Toxic | pIC50 [18]: 6.51 | pEC50 [19]: 8.12 | bioavailability [20]: 67% | Activity [21]: Non-Toxic | MEC [22]: > 30 µM
